Molecules are shown by their SMILES.

What is called IC50 is the concentration needed to halve the response being measured. A low value points to greater potency.

This test deals with human ACC2 (Homo sapiens (Human), UniProt O00763). The test can be described thus: ACC2 assay (spectrophotometric 384 well assay, NADH-linked kinetic method). It counts as biochemical. The note with it: hACC2 construct lacking 128 N-terminal amino acids; coupled lactate dehydrogenase/pyruvate kinase reaction, 340 nm, 25° C. A digest of the protocol:
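Baculovirus/insect-cell human ACC2, anion-exchange purified; ADP formation coupled to pyruvate kinase/lactate dehydrogenase, NADH loss followed at 340 nm, 25° C, 15 min. Final 200 μM NADH and acetyl-CoA, 500 uM ATP; vehicle and no-acetyl-CoA wells set 100% and 0%.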

Sequence of human ACC2 (O00763 129-2458): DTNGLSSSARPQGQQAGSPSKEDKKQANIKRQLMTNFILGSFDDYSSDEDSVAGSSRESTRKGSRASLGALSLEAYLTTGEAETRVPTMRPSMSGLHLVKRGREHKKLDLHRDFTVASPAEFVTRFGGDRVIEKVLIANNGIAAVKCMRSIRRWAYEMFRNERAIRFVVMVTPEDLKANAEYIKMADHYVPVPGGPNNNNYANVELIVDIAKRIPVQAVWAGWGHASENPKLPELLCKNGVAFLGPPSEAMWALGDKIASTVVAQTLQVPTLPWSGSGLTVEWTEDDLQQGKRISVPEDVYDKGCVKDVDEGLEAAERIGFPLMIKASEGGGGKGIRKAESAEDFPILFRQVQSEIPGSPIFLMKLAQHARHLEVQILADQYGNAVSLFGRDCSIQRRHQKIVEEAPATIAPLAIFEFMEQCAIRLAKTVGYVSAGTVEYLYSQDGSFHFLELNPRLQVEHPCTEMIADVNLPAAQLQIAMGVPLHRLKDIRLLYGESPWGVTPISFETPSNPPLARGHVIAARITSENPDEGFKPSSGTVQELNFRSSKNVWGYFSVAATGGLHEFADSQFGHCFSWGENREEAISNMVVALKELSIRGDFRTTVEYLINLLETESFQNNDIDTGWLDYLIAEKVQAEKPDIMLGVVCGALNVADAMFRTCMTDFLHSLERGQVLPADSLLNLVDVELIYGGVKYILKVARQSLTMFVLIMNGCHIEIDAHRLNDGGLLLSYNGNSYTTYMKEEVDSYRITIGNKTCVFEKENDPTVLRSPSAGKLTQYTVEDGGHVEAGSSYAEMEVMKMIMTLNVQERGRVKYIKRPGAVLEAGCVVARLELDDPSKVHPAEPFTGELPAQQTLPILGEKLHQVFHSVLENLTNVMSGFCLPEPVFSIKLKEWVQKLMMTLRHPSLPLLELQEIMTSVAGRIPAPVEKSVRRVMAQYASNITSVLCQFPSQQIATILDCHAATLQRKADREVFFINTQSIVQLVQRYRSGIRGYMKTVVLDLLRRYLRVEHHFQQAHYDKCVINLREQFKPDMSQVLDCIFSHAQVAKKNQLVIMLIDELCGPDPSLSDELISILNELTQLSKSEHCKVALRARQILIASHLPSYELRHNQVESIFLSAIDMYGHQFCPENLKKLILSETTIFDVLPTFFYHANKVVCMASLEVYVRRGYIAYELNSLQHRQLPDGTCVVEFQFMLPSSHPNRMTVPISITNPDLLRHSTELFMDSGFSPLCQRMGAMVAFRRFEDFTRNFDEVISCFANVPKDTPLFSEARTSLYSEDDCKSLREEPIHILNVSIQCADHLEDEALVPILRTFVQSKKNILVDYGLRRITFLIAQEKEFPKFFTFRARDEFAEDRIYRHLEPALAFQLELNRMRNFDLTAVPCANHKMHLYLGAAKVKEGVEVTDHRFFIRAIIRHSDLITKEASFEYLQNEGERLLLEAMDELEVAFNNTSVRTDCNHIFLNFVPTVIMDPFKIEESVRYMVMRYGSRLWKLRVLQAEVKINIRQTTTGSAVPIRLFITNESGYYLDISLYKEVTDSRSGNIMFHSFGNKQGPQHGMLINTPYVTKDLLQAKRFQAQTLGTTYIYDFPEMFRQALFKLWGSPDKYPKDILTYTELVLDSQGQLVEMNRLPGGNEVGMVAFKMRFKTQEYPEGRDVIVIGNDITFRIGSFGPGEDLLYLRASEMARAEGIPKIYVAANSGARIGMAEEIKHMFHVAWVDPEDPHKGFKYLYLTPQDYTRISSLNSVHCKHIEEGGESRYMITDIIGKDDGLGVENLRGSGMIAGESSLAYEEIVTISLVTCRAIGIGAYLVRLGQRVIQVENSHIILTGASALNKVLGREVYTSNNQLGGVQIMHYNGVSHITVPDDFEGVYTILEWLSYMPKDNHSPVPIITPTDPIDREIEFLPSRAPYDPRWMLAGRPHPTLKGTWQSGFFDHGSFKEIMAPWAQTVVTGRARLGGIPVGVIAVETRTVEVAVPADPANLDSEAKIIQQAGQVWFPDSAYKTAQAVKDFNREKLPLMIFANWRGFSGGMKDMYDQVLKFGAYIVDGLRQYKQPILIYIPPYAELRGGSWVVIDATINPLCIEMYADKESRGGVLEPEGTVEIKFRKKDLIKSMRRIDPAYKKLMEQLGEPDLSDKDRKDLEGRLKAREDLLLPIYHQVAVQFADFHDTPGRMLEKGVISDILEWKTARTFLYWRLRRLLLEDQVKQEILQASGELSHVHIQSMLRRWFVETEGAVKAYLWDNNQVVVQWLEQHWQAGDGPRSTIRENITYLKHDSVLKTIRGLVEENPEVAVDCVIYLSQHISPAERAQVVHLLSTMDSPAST

`CC(=O)Nc1nc(C)c(C(=O)N[C@@H](C)c2ccc(OC3CCN(c4ccnc(N5CCOCC5)n4)C3)cc2)s1` (stereo partly shown) [Example 2.3] yielded an IC50 of 547 nM. In turn, `CCN(CCOC)c1nccc(N2CC[C@@H](Oc3ccc([C@H](C)NC(C)=O)cc3)C2)n1` [Example 8.106] displayed an IC50 of 160 nM. Next, `COC1CCCN(c2ncc(F)c(N3CC[C@@H](Oc4ccc([C@H](C)NC(C)=O)cc4)C3)n2)C1` (stereo partly shown) [Example 8.275]: 183 nM; `COC[C@H](C)N(C)c1nccc(N2CC[C@@H](Oc3ccc([C@H](C)NC(C)=O)cc3)C2)n1` [Example 8.204]: 945 nM; `CCOc1ncnc(N2CC[C@@H](Oc3ccc([C@H](C)NC(C)=O)cc3)C2)c1F` [Example 7.26]: 148 nM.

For `CC(=O)N[C@@H](C)c1ccc(O[C@@H]2CCN(c3nc(N(C)C4CC4)ncc3F)C2)cc1` [Example 8.68], the half-maximal inhibitory concentration (IC50) stood at 50 nM. Molecule `CC(=O)N[C@@H](C)c1ccc(O[C@@H]2CCN(c3ncnc(C4CCCC4)c3F)C2)cc1` [Example 9.4] returned an IC50 of 464 nM. Against the preceding molecule, the IC50 is about 9.3-fold higher. Regarding `CC(=O)N[C@@H](C)c1ccc(O[C@@H]2CCN(c3ncnc(OCC(C)(C)O)c3Cl)C2)cc1` [Example 7.42], the IC50 is 81 nM.

Turning to `CC(=O)N[C@@H](C)c1ccc(O[C@@H]2CCN(c3nc(N(C)C(C)C)ncc3Cl)C2)cc1` [Example 8.141], the midpoint of inhibition, the IC50, lay at 148 nM.

As to `CC(=O)N[C@@H](C)c1ccc(O[C@@H]2CCN(c3ccnc(N4CCC(C)C4)n3)C2)cc1` (stereo partly shown) [Example 8.17], half-maximal inhibition (IC50) required 167 nM. The IC50 values of the last two molecules are within 1.5-fold of each other. For `CC(=O)N[C@@H](C)c1ccc(O[C@@H]2CCN(c3ccnc(N4CC[C@H](F)C4)n3)C2)cc1` [Example 8.265], it took 379 nM to reach half-maximal inhibition (IC50). As for `CC(=O)N[C@@H](C)c1ccc(O[C@@H]2CCN(c3ncnc(N4CCCC(F)(F)C4)c3F)C2)cc1` [Example 8.161], the midpoint of inhibition, the IC50, lay at 384 nM.

With `CC(=O)N[C@@H](C)c1ccc(O[C@@H]2CCN(c3ncnc(OCC4CC4)c3F)C2)cc1` [Example 7.1, N—((S)-1-(4-((R)-1-(6-(cyclopropylmethoxy)-5-fluoropyrimidin-4-yl)pyrrolidin-3-yloxy)phenyl)ethyl)acetamide], the IC50 was found to be 35 nM. Compared with the last molecule, the IC50 is about 11-fold lower. For the molecule `CC(=O)N[C@@H](C)c1ccc(O[C@@H]2CCN(c3nc(N4CCC[C@H]4C)ncc3Cl)C2)cc1` [Example 8.285], the IC50 stood at 89 nM. Next, `CC(=O)N[C@@H](C)c1ccc(O[C@@H]2CCN(c3nc(N(C)C)ncc3F)C2)cc1` [Example 8.1, N—((S)-1-(4-((R)-1-(2-(dimethylamino)-5-fluoropyrimidin-4-yl)pyrrolidin-3-yloxy)phenyl)ethyl)acetamide]: 55 nM. `CCN(C)c1nccc(N2CCC(Oc3ccc([C@H](C)NC(=O)c4cnoc4C)cc3)C2)n1` (stereo partly shown) [Example 2.18] came in with a half-inhibitory concentration (IC50) of 130 nM. Molecule `CC(=O)N[C@@H](C)c1ccc(O[C@@H]2CCN(c3nc(N4CCOC(C(F)(F)F)C4)ncc3F)C2)cc1` (stereo partly shown) [Example 8.257] came in with an IC50 of 121 nM. Next, `CCN(CCC#N)c1nccc(N2CC[C@@H](Oc3ccc([C@H](C)NC(C)=O)cc3)C2)n1` [Example 8.72]: 167 nM; `CC(=O)N[C@@H](C)c1ccc(O[C@@H]2CCN(c3ncnc(OCC(C)(C)O)c3F)C2)cc1` [Example 7.32]: 145 nM.

`CC(=O)N[C@@H](C)c1ccc(O[C@@H]2CCN(c3ncnc(NCC4CC4)c3F)C2)cc1` [Example 8.121] yielded an IC50 of 169 nM. Then `COC1CCN(c2ncc(Cl)c(N3CC[C@@H](Oc4ccc([C@H](C)NC(C)=O)cc4)C3)n2)CC1` [Example 8.153], with 679 nM; and `CC(=O)N[C@@H](C)c1ccc(O[C@@H]2CCN(c3ccnc(N4CCCCC4)n3)C2)cc1` [Example 8.18], with 160 nM.

For the molecule `CC(=O)N[C@@H](C)c1ccc(O[C@@H]2CCN(c3ccnc(N4CCSCC4)n3)C2)cc1` [Example 8.91], the IC50 amounted to 105 nM. `CC(=O)N[C@@H](C)c1ccc(O[C@@H]2CCN(c3ncnc(N(C)CC4CCOC4)c3F)C2)cc1` (stereo partly shown) [Example 8.122]: the IC50 was found to be 547 nM. Compared with the last molecule, the IC50 is about 5.2-fold higher.

Regarding `CC(=O)N[C@@H](C)c1ccc(O[C@@H]2CCN(c3nc(NC4(C)CCCC4)ncc3F)C2)cc1` [Example 8.36], inhibition was half-maximal at 539 nM (IC50). In the case of `CC(=O)N[C@@H](C)c1ccc(O[C@@H]2CCN(c3ccnc(OC4CCC4)n3)C2)cc1` [Example 7.7], the IC50 was determined as 884 nM. In the case of `CC(=O)N[C@@H](C)c1ccc(O[C@@H]2CCN(c3ncnc(N(C)C(C)C)c3F)C2)cc1` [Example 8.135], the IC50 came to 131 nM. This IC50 lies about 6.7-fold lower than the previous one. `CCNC(=O)N[C@@H](C)c1ccc(OC2CCN(c3ncnc(OCC4CC4)c3F)C2)cc1` (stereo partly shown) [Example 3.14] yielded a concentration for half-maximal inhibition (IC50) of 120 nM. As to `CC(=O)N[C@@H](C)c1ccc(O[C@@H]2CCN(c3nc(N(CCO)C4CC4)ncc3F)C2)cc1` [Example 8.288], the IC50 worked out at 874 nM.

In turn, `CC(=O)N[C@@H](C)c1ccc(O[C@@H]2CCN(c3ccnc(N4CC(C)(C)C4)n3)C2)cc1` [Example 8.73] gave an IC50 of 1040 nM.

In turn, `C[C@H](NC(=O)Nc1ccon1)c1ccc(OC2CCN(c3ccnc(N4CCOCC4)n3)C2)cc1` (stereo partly shown) [Example 3.5] showed a half-inhibitory concentration (IC50) of 299 nM. This IC50 lies about 3.5-fold lower than the previous one. `CC(=O)N[C@@H](C)c1ccc(O[C@@H]2CCN(c3ncnc(N4CCC[C@@H]4C)c3F)C2)cc1` [Example 8.284] registered an IC50 of 240 nM. The molecule `CC(=O)N[C@@H](C)c1ccc(O[C@@H]2CCN(c3ncnc(N4CCC(C)(C)C4)c3F)C2)cc1` [Example 8.199] displayed an IC50 of 85 nM. Molecule `CC(=O)N[C@@H](C)c1ccc(O[C@@H]2CCN(c3nc(N4C[C@@H]5CC[C@@H](C4)O5)ncc3F)C2)cc1` [Example 8.279] gave an IC50 of 369 nM. Then `C[C@H](NC(=O)c1cn[nH]c1)c1ccc(OC2CCN(c3ccnc(N(C)CC(F)F)n3)C2)cc1` (stereo partly shown) [Example 2.15], with 70 nM. Consider `CCN(C)c1nc(N2CC[C@@H](Oc3ccc([C@H](C)NC(C)=O)cc3)C2)ncc1F` [Example 6.12], for which the 50% inhibitory concentration (IC50) was 828 nM. Then `CC(=O)N[C@@H](C)c1ccc(O[C@@H]2CCN(c3ncc(OCC4CC4(F)F)cn3)C2)cc1` (stereo partly shown) [Example 6.8], with 163 nM.

`CC(=O)N[C@@H](C)c1ccc(O[C@@H]2CCN(c3ccnc(N(C)CC(F)(F)F)n3)C2)cc1` [Example 8.46] came in with an IC50 of 89 nM. Regarding `CC(=O)N[C@@H](C)c1ccc(O[C@@H]2CCN(c3ncnc(N4CCCCC4)c3Cl)C2)cc1` [Example 8.112], the IC50 is 53 nM. This IC50 is about 1.7-fold lower than that of the molecule before.

In turn, `CC(=O)N[C@@H](C)c1ccc(OC2CCN(c3cnc(OCC4CC4)nc3)C2)cc1` (stereo partly shown) [Example 1.3] returned an IC50 of 964 nM. As for `COc1c(OCC2CC2)ncnc1N1CC[C@@H](Oc2ccc([C@H](C)NC(=O)C3(C)CC3)cc2)C1` [Example 2.29], half-maximal inhibition (IC50) required 204 nM. As to `CCN(CC)c1ncc(Cl)c(N2CC[C@@H](Oc3ccc([C@H](C)NC(C)=O)cc3)C2)n1` [Example 8.60], the IC50 is 59 nM.

`COc1c(OCC(F)F)ncnc1N1CC[C@@H](Oc2ccc([C@H](C)NC(C)=O)cc2)C1` [Example 7.54]: the IC50 came to 162 nM. For `C[C@H](NC(=O)c1ccns1)c1ccc(OC2CCN(c3ccnc(N4CCOCC4)n3)C2)cc1` (stereo partly shown) [Example 2.5], 535 nM corresponded to half-maximal inhibition (IC50). The molecule `CC(=O)N[C@@H](C)c1ccc(O[C@@H]2CCN(c3nc(N(C)CC(C)C)ncc3F)C2)cc1` [Example 8.164] registered an IC50 of 102 nM. For the molecule `CC(=O)N[C@@H](C)c1ccc(O[C@@H]2CCN(c3ncnc(N4CC[C@@H](F)C4)c3F)C2)cc1` [Example 8.162], the IC50 came to 476 nM.

(Values after US8962641B2, “Pyrimidine-substituted pyrrolidine derivatives, pharmaceutical compositions and uses thereof” (Boehringer Ingelheim International GmbH, priority 2013, dated 2015).)
